In patent US8003812B2, “C10 cyclopentyl ester substituted taxanes” (priority 2004, dated 2011):
Values joined by “and” are separate entries in the source; they are usually repeats but may differ in a detail not shown here. Equal entries are not always repeated. Where two headings read alike, the source gives them in different places.

How the values were obtained:
[1] = test system: DLD-1 (resistant human colon carcinoma); experiment: In vitro cytotoxicity, MTT assay, DLD-1; type: cell-based
[2] = test system: VM46 (resistant variant of human colon carcinoma HCT 116); experiment: In vitro cytotoxicity, cell colony formation assay, VM46; type: cell-based; conditions: 72 h drug incubation
Description: The cells were incubated in a CO2 incubator at 37° C. for 5 h for attachment to the bottom of Petri dishes. The compound of the present invention was made up fresh in medium at ten times the final concentration, and then 0.3 mL of this stock solution was added to the 2.7 mL of medium in the dish. The cells were then incubated with drugs for 72 h at 37° C. At the end of incubation the drug-containing media were decanted, the dishes were rinsed with 4 mL of Hank's Balance Salt Solution (HBSS), 5 mL of fresh medium was added, and the dishes were returned to the incubator for colony formation. The cell colonies were counted using a colony counter after incubation for 7 days. Cell survival was calculated and the values of IC50 (the drug concentration producing 50% inhibition of colony formation) were determined for each tested compound.
Identical assessments were carried out using VM46 (resistant variant of human colon carcinoma HCT 116 obtained from Dr. Li-Xi, M.D, Ph.D., California Pacific Medical Center, CA).

[3] = test system: HT29 (human colon carcinoma) xenograft; conditions: for Efficacy Score = 10*(TWd1−TWdn)/TWd1: single dose IV
Description: Score=10*(TWd1−TWdn)/TWd1, where
TWd1=tumor weight on day 1
(§1) TWDn=lowest tumor weight on day 10 or later
(§2) Thus the best score for complete regression would be 10.

[4] = test system: human pancreatic tumor xenograft Panc-1; conditions: for No. of CR / No. of LTTES / No. of PR: 6 mice; for Median TTE: endpoint 1200 mg; for Efficacy Score = 10*(TWd1−TWdn)/TWd1: best score 10; for No. of NTR / No. of TR: mouse, in vivo, po;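 as to all read-outs here: Panc-1 fragments grown subcutaneously in athymic nude mice, one oral dose given on Day 1, six mice per group, tumor endpoint 1200 mm^3, control is Group 1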
Description: The tumor used for this study was maintained in athymic nude mice. A tumor fragment (1 mm^3) was implanted s.c. into the right flank of each test mouse. Tumors were monitored twice weekly and then daily as their volume approached 200-400 mm^3 with a mean of 250-300 mm^3. On Day 1 of the study, the animals were sorted into treatment groups with tumor sizes of 171.5-320.0 mm^3 and group mean tumor sizes of 212.6-216.0 mm^3. Tumor size, in mm^3, was calculated from the following formula:
[formula] where w=width and l=length in mm of the tumor. Tumor weight was estimated with the assumption that 1 mg is equivalent to 1 mm^3 of tumor volume. […] All treatments were administered orally, once on Day 1 (qd×1). […] In all groups, the dosing volume of 0.6 mL/20 g mouse was scaled to the body weight of each animal. Each animal was euthanized when its neoplasm reached the predetermined endpoint size (1200 mm^3). The time to endpoint (TTE) for each mouse was calculated by the following equation:
[formula] where TTE is expressed in days, endpoint volume is in mm^3, b is the intercept, and m is the slope of the line obtained by linear regression of a log-transformed tumor growth data set. The data set is comprised of the first observation that exceeded the study endpoint volume and the three consecutive observations that immediately preceded the attainment of the endpoint volume. […] Animals classified as TR (treatment-related) deaths or NTRM (non-treatment-related metastasis) deaths are assigned a TTE value equal to the day of death. Animals classified as NTR (non-treatment-related) deaths are excluded from TTE calculations. Treatment efficacy was determined from tumor growth delay (TGD), which is defined as the increase in the median TTE for a treatment group compared to the control group: TGD=T−C, expressed in days, or as a percentage of the median TTE of the control group:
[formula] where: • T=median TTE for a treatment group and • C=median TTE for control Group 1.
Treatment may cause partial regression (PR) or complete regression (CR) of the tumor in an animal. In a PR response, the tumor volume is 50% or less of its Day 1 volume for three consecutive measurements during the course of the study, and equal to or greater than 13.5 mm^3 for one or more of these three measurements. In a CR response, the tumor volume is less than 13.5 mm^3 for three consecutive measurements during the course of the study. An animal with a CR response at the termination of a study is additionally classified as a long-term tumor-free survivor (LTTFS).
With respect to toxicity, the animals were weighed daily on Days 1-5, then twice weekly until the completion of the study. The mice were examined frequently for overt signs of any adverse, drug-related side effects. Acceptable toxicity for the maximum tolerated dose (MTD) of a cancer drug in mice is defined by the NCl as a group mean body-weight (BW) loss of less than 20% during the test, and not more than one toxic death among ten treated animals. The log rank test was employed to analyze the significance of the difference between the TTE values of a drug-treated group and the vehicle-treated control group. The log rank test analyzes the data for all animals except the NTR deaths. The two-tailed statistical analyses were conducted at P=0.05. The group median tumor growth curves show the median tumor volume (MTV) as a function of time. When an animal exited the study due to tumor size or TR death, the final tumor volume recorded for the animal was included with the data used to calculate the median volume at subsequent time points.

[5] = test system: HT29 (human colon carcinoma) xenograft; conditions: for # Death NTR / # Death TR / MDS to 1.0 g ± SEM (n) / Efficacy Score = 10*(TWd1−TWdn)/TWd1: HT29; for # Death NTR / # Death TR: 6 mice; for Efficacy Score = 10*(TWd1−TWdn)/TWd1: best score 10; for Max. % BW Loss; Day: mouse, in vivo, po
Description: Score=10*(TWd1−TWdn)/TWd1, where
TWd1=tumor weight on day 1
as §1, §2

[6] = Group 5: 120 mg/kg IV QD × 1 in 5% E-95% I-20, 6 mice
[7] = Group 6: 60 mg/kg IV QD × 1 in 5% E-95% I-20, 6 mice
[8] = Group 7: 120 mg/kg IV QD × 1 in 5% ET in Saline, 6 mice
[9] = Group 8: 60 mg/kg IV QD × 1 in 5% ET in Saline, 6 mice
[10] = Group 9: 120 mg/kg IV QD × 1 in 5% EC in Saline, 6 mice
[11] = Group 10: 60 mg/kg IV QD × 1 in 5% EC in Saline, 6 mice
[12] = Group 14: 30 mg/kg IV Q4d × 4 in 5% E-95% I-20, 6 mice
[13] = Group 15: 20 mg/kg IV Q4d × 4 in 5% E-95% I-20, 6 mice
[14] = Group 16: 30 mg/kg IV Q4d × 4 in 5% ET in Saline, 6 mice
[15] = Group 17: 20 mg/kg IV Q4d × 4 in 5% ET in Saline, 6 mice
[16] = Group 18: 30 mg/kg IV Q4d × 4 in 5% EC in Saline, 6 mice
[17] = Group 19: 20 mg/kg IV Q4D × 4 in 5% EC in Saline, 6 mice
[18] = Panc-1, Group 2: 120 mg/kg po qd × 1
[19] = Panc-1, Group 2: 120 mg/kg po qd × 1, 120 mg/kg
[20] = Panc-1, Group 3: 60 mg/kg po qd × 1
[21] = Panc-1, Group 3: 60 mg/kg po qd × 1, 60 mg/kg

SMILES: CC(=O)OC12COC1CC(O)C1(C)C(=O)C(OC(=O)C3CCCC3)C3=C(C)C(OC(=O)C(O)C(NC(=O)OC(C)C)c4cccs4)CC(O)(C(OC(=O)c4ccccc4)C21)C3(C)C (centres unmarked) [Compound 9091]
- IC50 [1]: 1.5 nM
- IC50 [2]: 1.9 nM and 1.87 nM
- # Death NTR [3, 6]: 0
- # Death TR [3, 6]: 0
- MDS to 1.0 g ± SEM (n) ([3]; Group 6: 60 mg/kg IV QD × 1 in 5% E-95% I-20): 51.9 ± 0.0
- # Death NTR [3, 7]: 0
- # Death TR [3, 7]: 0
- # Death NTR [3, 8]: 0
- # Death TR [3, 8]: 5
- MDS to 1.0 g ± SEM (n) ([3]; Group 8: 60 mg/kg IV QD × 1 in 5% ET in Saline): 51.8±
- # Death NTR [3, 9]: 0
- # Death TR [3, 9]: 0
- # Death NTR [3, 10]: 0
- # Death TR [3, 10]: 0
- MDS to 1.0 g ± SEM (n) ([3]; Group 10: 60 mg/kg IV QD × 1 in 5% EC in Saline): 46.0±
- # Death NTR [3, 11]: 0
- # Death TR [3, 11]: 0
- # Death NTR [3, 12]: 0
- # Death TR [3, 12]: 0
- # Death NTR [3, 13]: 0
- # Death TR [3, 13]: 0
- # Death NTR [3, 14]: 0
- # Death TR [3, 14]: 0
- # Death NTR [3, 15]: 0
- # Death TR [3, 15]: 0
- # Death NTR [3, 16]: 0
- # Death TR [3, 16]: 0
- # Death NTR [3, 17]: 0
- # Death TR [3, 17]: 0
- Efficacy Score = 10*(TWd1−TWdn)/TWd1 ([3]; Dose 60, best score 10): 8
- Efficacy Score = 10*(TWd1−TWdn)/TWd1 ([3]; Dose 120, best score 10): 8.7
- T − C [4, 18]: 40.1 days
- % TGD [4, 19]: 212%
- No. of CR [4, 18]: 3
- No. of LTTES [4, 18]: 3
- No. of PR [4, 18]: 3
- Tumor Burden Median(n), Day 59 (MTV) [4, 19]: 56 mm^3 and 56 (6) mm^3
- Median TTE [4, 18]: 59.0 days
- T − C [4, 20]: 40.1 days
- % TGD [4, 21]: 212%
- No. of CR [4, 20]: 1
- No. of LTTES [4, 20]: 1
- No. of PR [4, 20]: 5
- Tumor Burden Median(n), Day 59 (MTV) [4, 21]: 148 mm^3 and 148 (6) mm^3
- Median TTE [4, 20]: 59.0 days
- survival ([4]; Panc-1, at both the 120 and 60 mg/kg dose, po qd × 1): 100%
- regression responses ([4]; Panc-1, at both the 120 and 60 mg/kg dose, po qd × 1, 6 mice per group): six
- Efficacy Score = 10*(TWd1−TWdn)/TWd1 ([4]; Panc-1, single dose oral 60 mg/kg): 8.3
- Efficacy Score = 10*(TWd1−TWdn)/TWd1 ([4]; Panc-1, single dose oral 120 mg/kg): 9.1
- No. of NTR ([4]; 60 mg/kg): 0
- No. of TR ([4]; 60 mg/kg): 0
- No. of NTR ([4]; 120 mg/kg): 0
- No. of TR ([4]; 120 mg/kg): 0
- # Death NTR ([5]; Group 18: 15 mg/kg po q4d × 4): 0
- # Death TR ([5]; Group 18: 15 mg/kg po q4d × 4): 0
- MDS to 1.0 g ± SEM (n) ([5]; Group 18: 15 mg/kg po q4d × 4, n=6): 24.4 ± 1.4 (6)
- # Death NTR ([5]; Group 19: 30 mg/kg po q4d × 4): 0
- # Death TR ([5]; Group 19: 30 mg/kg po q4d × 4): 0
- MDS to 1.0 g ± SEM (n) ([5]; Group 19: 30 mg/kg po q4d × 4, n=1): 25.6 ± (1)
- # Death NTR ([5]; Group 20: 45 mg/kg po q4d × 4): 0
- # Death TR ([5]; Group 20: 45 mg/kg po q4d × 4): 0
- # Death NTR ([5]; Group 21: 60 mg/kg po q4d × 4): 0
- # Death TR ([5]; Group 21: 60 mg/kg po q4d × 4): 4
- Efficacy Score = 10*(TWd1−TWdn)/TWd1 ([5]; single dose oral 60 mg/kg): 4.3
- Efficacy Score = 10*(TWd1−TWdn)/TWd1 ([5]; single dose oral 120 mg/kg): 8.7
- Max. % BW Loss; Day ([5]; 30 mg/kg): −11.3%;
- Max. % BW Loss; Day ([5]; 45 mg/kg): −22.6%;
- Max. % BW Loss; Day ([5]; 60 mg/kg): −28.1%;
